# Reference: US20260123631A1, “NATURAL PORPHIN SALT AND USE THEREOF AS PLANT GROWTH REGULATOR AND PLANT IMMUNITY INDUCER” (NANJING BOSTEC BIOLOGICAL ENGINEERING CO., LTD, priority 2022, published 2026)
# Legend:
# [1] = tested on: Phytophthora capsici LT263; assay: Inducing resistance of Nicotiana benthamiana leaves to phytophthora blight; assay type: in vivo; conditions: inoculated on day 7 and day 10, read 36 h after inoculation
# Procedure: At 36 h after the inoculation, results were observed.
# DTA/TG thermal analysis = assay type: physicochemical; conditions: nitrogen, 10° C./min, 25° C. to 500° C.
# Procedure: Test instrument: Shimadzu DTG-60 DTA-TG synchronous analyzer.
# Test samples: Sodium iron chlorin and iron chlorin.
# Reference: Aluminum oxide.
# Heating rate: 10° C./min.
# Heating range: 25° C. to 500° C.
# Sample weight: 4.3 mg to 4.5 mg.
# Analysis software: ta60WS Ver. 2.11.
# Results were shown in FIG. 1, including a DTA comparison chart (the upper part in FIG. 1) and a TG comparison chart (the lower part in FIG. 1) for the samples.
# rice = assay: Rice yield in the sheath blight field experiment; assay type: in vivo, rice (Nanjing 9108); conditions: 3.0 mg/mu sprayed 3 times
# Procedure: A test sample was dissolved, diluted, thoroughly stirred, and then applied, with an application area of 3 mu for each treatment. The harvesting was conducted on Nov. 8, 2021. On the eve of harvesting, the yield composition and structure were investigated. Then a yield per mu was measured.
# [2] = Stability of sample solutions in the dark/under light; assay type: physicochemical
# Summary of the method: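 Salt in water, or acidic reference in 30–50% aqueous ethanol, at about 10 ppm; UV absorbance scanned 200–800 nm at 0, 1, 2, 3 h, stored at 25° C dark or under 30,000 lux light. Relative content = max-peak absorbance at each time divided by 0 h value (100%).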
# mosaic virus = assay: Controlling diseases in tobacco by spraying; assay type: in vivo, tobacco (Yunyan 87); conditions: 30 L/mu
# Excerpt: For each treatment, 4 plots relatively scattered were selected from the field, with each plot of 50 m^2. An agent was sprayed twice around May 28 and June 4 during a root-spreading stage (12 leaves to 14 leaves) after tobacco transplanting, respectively. A same spraying volume (30 L/mu) was adopted for each treatment. During the spraying operation, each leaf surface should be sprayed evenly without dead corners left.
# On July 15, tobacco plants in all treatment plots were surveyed. An incidence grading survey was conducted according to the Grade and investigation method of tobacco diseases and insect pests GB/T23222-2008, and an incidence rate and a disease index were counted for each treatment plot.
# [3] = Water solubility of the prepared salts; assay type: physicochemical
# chlorophyllase = assay: In vitro chlorophyllase-inhibiting activity test; assay type: biochemical, mung bean; conditions: substrate chlorophyll 120 ppm, sample 0.3 ppm to 30.0 ppm
# Procedure: A chlorophyllase inhibition rate of a salt sample solution at each concentration was determined, and an IC50 value for a chlorophyllase inhibition activity of a salt sample was calculated.
# [4] = Dilution and pH determination for sample solutions; assay type: physicochemical
# Procedure: Method: 0.2500 g of a sample was accurately weighed and added to a 25 mL volumetric flask, dissolved with purified water, and diluted to a specified scale to prepare a 1.00% (10,000.0 ppm) initial solution. The initial solution was diluted with purified water in different ratios to prepare a series of solutions with a concentration of 1,000.0 ppm to 0.1 ppm. A pH value of each sample was determined three times.
substance,measurement,setting,value
sodium iron chlorin [Example 21],lesion area after LT263 inoculation compared with DDW,[1]; 2.0 ppm injected into leaves,significantly reduce a lesion area
same,lesion area after LT263 inoculation compared with DDW,[1]; 20.0 ppm injected into leaves,significantly reduce a lesion area
same,thermal stability compared with the acidic sample,DTA/TG thermal analysis,significantly-stronger thermal stability
same,Ear number per mu,rice,"26.14 10,000"
same,Filled grain number per ear,rice,99.93
same,Thousand-grain weight,rice,27.00 g
same,Yield,rice,705.38 kg/mu
same,Yield increase rate,rice; versus clear water,11.46%
same,Relative content,"[2]; in the dark, 25° C., 0 h",100.0%
same,Relative content,"[2]; in the dark, 25° C., 1 h",99.51%
same,Relative content,"[2]; in the dark, 25° C., 2 h",99.60%
same,Relative content,"[2]; in the dark, 25° C., 3 h",99.43%
same,Relative content,"[2]; under light 30,000 lux, 0 h",100.00%
same,Relative content,"[2]; under light 30,000 lux, 1 h, salts in water, acidic reference in 30% to 50% ethanol",69.35%
same,Relative content,"[2]; under light 30,000 lux, 2 h, salts in water, acidic reference in 30% to 50% ethanol",59.05%
same,Relative content,"[2]; under light 30,000 lux, 3 h, salts in water, acidic reference in 30% to 50% ethanol",54.02%
same,Disease index,mosaic virus; 0.05 ppm sprayed twice,8.94
same,Relative control effect,mosaic virus; 0.05 ppm sprayed twice,65.48%
same,Disease index,mosaic virus; 0.10 ppm sprayed twice,8.77
same,Relative control effect,mosaic virus; 0.10 ppm sprayed twice,66.13%
same,Disease index,mosaic virus; 0.20 ppm sprayed twice,8.15
same,Relative control effect,mosaic virus; 0.20 ppm sprayed twice,71.00%
same,solubility in water,[3],easily soluble
same,IC50 for chlorophyllase inhibition activity,chlorophyllase,5.22 ppm
same,pH,[4]; 0.1 ppm in purified water,(6.79)
same,pH,[4]; 1.0 ppm in purified water,(6.89)
same,pH,[4]; 10.0 ppm in purified water,(7.23)
same,pH,[4]; 20.0 ppm in purified water,(7.42)
same,pH,[4]; 30.0 ppm in purified water,(7.51)
same,pH,[4]; 100.0 ppm in purified water,(8.34)
same,pH,[4]; 1000.0 ppm in purified water,(9.71)
same,pH,[4]; 10000.0 ppm in purified water,(10.41)
